Values quoted from earlier work, collected in publication PMC7395068, “The evolution of strategies to minimise the risk of human drug-induced liver injury (DILI) in drug discovery and development” (Archives of Toxicology, 2020).
Read-outs that look alike come from different tables or passages of the source.

Experiments:
HepG2 cells = conditions: cited from earlier work
[1] = cited from earlier work
[2] = cited from earlier work; remark: listed apart in the source
[3] = test system: THLE or HepG2 cells, isolated mitochondria, BSEP; conditions: cited from earlier work
human hepatocytes = conditions: cited from earlier work
[4] = test system: isolated mouse liver mitochondria; conditions: In vitro Assay; ref Porceddu 2012; cited from earlier work
[5] = test system: primary human hepatocytes, NIH3T3 fibroblasts, BSEP, CYP3A4; conditions: In vitro Assay; ref Schadt 2015; cited from earlier work
[6] = In vitro Assay, ref Persson 2013

## O=C(O)CCCCCCNC1c2ccccc2CCc2ccccc21 [amineptine]
HepG2 cells
  Cluser analysis: -VE
  Structural based (HCI): -VE
[1]; in vivo
  In vivo DILI: +VE
[2]; in vivo
  DILI +VE (5-8), DILI -VE (-4): +VE
  DILI severity category: vMost-DILI-Concern
[3]
  Partition Hybrid HRM Score: +VE
  Ro2 Hybrid HRM Score: -VE

## Nc1ccc(C(=O)O)c(O)c1 [aminosalicylic acid]
Human hepatocytes
  Structural based (HCI): +VE
HepG2 cells; [6]
  Cluser analysis: -VE
  Structural based (HCI): -VE
[1]; in vivo
  In vivo DILI: +VE

## CCN1CCCC1CNC(=O)c1cc(S(=O)(=O)CC)c(N)cc1OC (stereo not shown) [amisulpride]
HepG2 cells; [6]
  Cluser analysis: -VE
  Structural based (HCI): -VE
[1]; ref Persson 2013
  In vivo DILI: -VE

## C=CC1=C(C(=O)O)N2C(=O)[C@@H](NC(=O)/C(=N\OCC(=O)O)c3csc(N)n3)[C@H]2SC1 [cefixime]
[4]
  in vitro data EC2<=1x Cmax: +VE
  in vitro data EC20<=2uM: -VE
[1]; ref Porceddu 2012
  In vivo DILI: +VE
[2]; ref Chen 2016
  DILI +VE (5-8), DILI -VE (-4): -VE
  DILI severity category: Ambiguous DILI-concern

## O=C(O)CCCc1ccc(N(CCCl)CCCl)cc1 [chlorambucil]
[4]
  in vitro data EC2<=1x Cmax: +VE
  in vitro data EC20<=2uM: +VE
[1]; ref Porceddu 2012
  In vivo DILI: +VE
[2]; ref Chen 2016
  DILI +VE (5-8), DILI -VE (-4): +VE
  DILI severity category: vLess-DILI-Concern

## Clc1ccccc1C(c1ccccc1)(c1ccccc1)n1ccnc1 [clotrimazole]
Human hepatocytes; In vitro Assay, ref Xu 2008
  Structural based (HCI): -VE
[4]
  in vitro data EC2<=1x Cmax: +VE
  in vitro data EC20<=2uM: +VE
[1]; […]
  In vivo DILI: -VE
[1]; ref Aleo 2019
  In vivo DILI: +VE
[1]; ref Porceddu 2012
  In vivo DILI: +VE
[1]; ref Xu 2008
  In vivo DILI: -VE
[2]; ref Chen 2016
  DILI +VE (5-8), DILI -VE (-4): +VE
  DILI severity category: vLess-DILI-Concern
[3]; In vitro Assay, ref Aleo 2019
  Partition Hybrid HRM Score: +VE
  Ro2 Hybrid HRM Score: +VE

## COc1cccc2c1C(=O)c1c(O)c3c(c(O)c1C2=O)C[C@@](O)(C(C)=O)C[C@@H]3O[C@H]1C[C@H](N)[C@H](O)[C@H](C)O1 [daunorubicin]
[4]
  in vitro data EC2<=1x Cmax: +VE
  in vitro data EC20<=2uM: +VE
[1]; ref Porceddu 2012
  In vivo DILI: +VE
[2]; ref Chen 2016
  DILI +VE (5-8), DILI -VE (-4): -VE
  DILI severity category: vNo-DILI-Concern

## CC1=NS(=O)(=O)c2cc(Cl)ccc2N1 [diazoxide]
[4]
  in vitro data EC2<=1x Cmax: +VE
  in vitro data EC20<=2uM: -VE
[1]; ref Porceddu 2012
  In vivo DILI: -VE
[2]; ref Chen 2016
  DILI +VE (5-8), DILI -VE (-4): -VE
  DILI severity category: Ambiguous DILI-concern

## O=C(O)c1cc(-c2ccc(F)cc2F)ccc1O [diflunisal]
Human hepatocytes; In vitro Assay, ref Xu 2008
  Structural based (HCI): +VE
[4]
  in vitro data EC2<=1x Cmax: +VE
  in vitro data EC20<=2uM: +VE
[1]; ref Porceddu 2012
  In vivo DILI: +VE
[1]; ref Xu 2008
  In vivo DILI: +VE
[2]; ref Chen 2016
  DILI +VE (5-8), DILI -VE (-4): +VE
  DILI severity category: vMost-DILI-Concern

## C#Cc1cccc(Nc2ncnc3cc(OCCOC)c(OCCOC)cc23)c1 [erlotinib]
[4]
  in vitro data EC2<=1x Cmax: +VE
  in vitro data EC20<=2uM: +VE
[1]; ref Porceddu 2012
  In vivo DILI: +VE
[2]; ref Chen 2016
  DILI +VE (5-8), DILI -VE (-4): +VE
  DILI severity category: vMost-DILI-Concern

## CC(C)(C(=O)O)c1ccc(C(O)CCCN2CCC(C(O)(c3ccccc3)c3ccccc3)CC2)cc1 (stereo not shown) [fexofenadine]
HepG2 cells
  Cluser analysis: -VE

## Nc1nc2ncc(CNc3ccc(C(=O)N[C@@H](CCC(=O)O)C(=O)O)cc3)nc2c(=O)[nH]1 [folic acid]
[4]
  in vitro data EC2<=1x Cmax: +VE
[3]; In vitro Assay, ref Aleo 2019
  Partition Hybrid HRM Score: -VE
  Ro2 Hybrid HRM Score: -VE

## Nc1nc(=O)c2c([nH]1)NC[C@@H](CNc1ccc(C(=O)N[C@@H](CCC(=O)O)C(=O)O)cc1)N2C=O [folinic acid]
HepG2 cells; [6]
  Cluser analysis: -VE
  Structural based (HCI): -VE
[1]; ref Persson 2013
  In vivo DILI: -VE

## COc1cc2ncnc(Nc3ccc(F)c(Cl)c3)c2cc1OCCCN1CCOCC1 [gefitinib]
[4]
  in vitro data EC2<=1x Cmax: +VE
[3]; In vitro Assay, ref Aleo 2019
  Partition Hybrid HRM Score: +VE
  Ro2 Hybrid HRM Score: +VE

## Cc1ccc(NC(=O)c2ccc(CN3CCN(C)CC3)cc2)cc1Nc1nccc(-c2cccnc2)n1 [imatinib]
[4]
  in vitro data EC2<=1x Cmax: +VE
[1]; in vivo
  In vivo DILI: +VE
[2]; in vivo
  DILI +VE (5-8), DILI -VE (-4): +VE
  DILI severity category: vMost-DILI-Concern

## Nc1ccn([C@@H]2CS[C@H](CO)O2)c(=O)n1 [lamivudine]
[4]
  in vitro data EC2<=1x Cmax: +VE
[2]; in vivo
  DILI +VE (5-8), DILI -VE (-4): +VE
  DILI severity category: vLess-DILI-Concern
[3]
  Partition Hybrid HRM Score: -VE

## Cc1c(O)cccc1C(=O)N[C@@H](CSc1ccccc1)[C@H](O)CN1C[C@H]2CCCC[C@H]2C[C@H]1C(=O)NC(C)(C)C [nelfinavir]
[4]
  in vitro data EC2<=1x Cmax: +VE
  in vitro data EC20<=2uM: +VE
[1]; ref Porceddu 2012
  In vivo DILI: +VE
[2]; ref Chen 2016
  DILI +VE (5-8), DILI -VE (-4): +VE
  DILI severity category: vLess-DILI-Concern

## CCCN1C[C@H](CSC)C[C@@H]2c3cccc4[nH]cc(c34)C[C@H]21 [pergolide]
HepG2 cells; [6]
  Cluser analysis: -VE
  Structural based (HCI): -VE
[1]; ref Persson 2013
  In vivo DILI: -VE
[2]; ref Chen 2016
  DILI +VE (5-8), DILI -VE (-4): -VE
  DILI severity category: Ambiguous DILI-concern

## CC(C)c1nc(CN(C)C(=O)N[C@H](C(=O)N[C@@H](Cc2ccccc2)C[C@H](O)[C@H](Cc2ccccc2)NC(=O)OCc2cncs2)C(C)C)cs1 [ritonavir]
[4]
  in vitro data EC2<=1x Cmax: +VE
  in vitro data EC20<=2uM: +VE
[1]; ref Aleo 2019
  In vivo DILI: +VE
[1]; ref Porceddu 2012
  In vivo DILI: +VE
[1]; ref Schadt 2015
  In vivo DILI: +VE
[2]; ref Chen 2016
  DILI +VE (5-8), DILI -VE (-4): +VE
  DILI severity category: vMost-DILI-Concern
[3]; In vitro Assay, ref Aleo 2019
  Partition Hybrid HRM Score: +VE
  Ro2 Hybrid HRM Score: +VE

## CC(C)(C)NC(=O)[C@@H]1C[C@@H]2CCCC[C@@H]2CN1C[C@@H](O)[C@H](Cc1ccccc1)NC(=O)[C@H](CC(N)=O)NC(=O)c1ccc2ccccc2n1 [saquinavir]
[4]
  in vitro data EC2<=1x Cmax: +VE
  in vitro data EC20<=2uM: +VE
[1]; ref Porceddu 2012
  In vivo DILI: +VE
[1]; ref Schadt 2015
  In vivo DILI: -VE
[2]; ref Chen 2016
  DILI +VE (5-8), DILI -VE (-4): +VE
  DILI severity category: vLess-DILI-Concern

## CNC(=O)c1cc(Oc2ccc(NC(=O)Nc3ccc(Cl)c(C(F)(F)F)c3)cc2)ccn1 [sorafenib]
[4]
  in vitro data EC2<=1x Cmax: +VE
  in vitro data EC20<=2uM: -VE
[1]; ref Aleo 2019
  In vivo DILI: +VE
[1]; ref Porceddu 2012
  In vivo DILI: +VE
[2]; ref Chen 2016
  DILI +VE (5-8), DILI -VE (-4): +VE
  DILI severity category: vMost-DILI-Concern
[3]; In vitro Assay, ref Aleo 2019
  Partition Hybrid HRM Score: +VE
  Ro2 Hybrid HRM Score: +VE

## CNS(=O)(=O)Cc1ccc2[nH]cc(CCN(C)C)c2c1 [sumatriptan]
Human hepatocytes; In vitro Assay, ref Xu 2008
  Structural based (HCI): -VE
[4]
  in vitro data EC2<=1x Cmax: -VE
  in vitro data EC20<=2uM: -VE
[1]; ref Porceddu 2012
  In vivo DILI: -VE
[1]; ref Xu 2008
  In vivo DILI: -VE
[2]; ref Chen 2016
  DILI +VE (5-8), DILI -VE (-4): -VE
  DILI severity category: Ambiguous DILI-concern

## COc1cccc(C2(O)CCCCC2CN(C)C)c1 (stereo not shown) [tramadol]
[4]
  in vitro data EC2<=1x Cmax: -VE
  in vitro data EC20<=2uM: -VE
[1]; ref Porceddu 2012
  In vivo DILI: +VE
[2]; ref Chen 2016
  DILI +VE (5-8), DILI -VE (-4): -VE
  DILI severity category: Ambiguous DILI-concern

## CN[C@H](CC(C)C)C(=O)N[C@H]1C(=O)N[C@@H](CC(N)=O)C(=O)N[C@H]2C(=O)N[C@H]3C(=O)N[C@H](C(=O)N[C@H](C(=O)O)c4cc(O)cc(O)c4-c4cc3ccc4O)[C@H](O)c3ccc(c(Cl)c3)Oc3cc2cc(c3O[C@@H]2O[C@H](CO)[C@@H](O)[C@H](O)[C@H]2O[C@H]2C[C@](C)(N)[C@H](O)[C@H](C)O2)Oc2ccc(cc2Cl)[C@H]1O [vancomycin]
Human hepatocytes
  Structural based (HCI): +VE
HepG2 cells
  Cluser analysis: -VE
[2]; in vivo
  DILI +VE (5-8), DILI -VE (-4): +VE
  DILI severity category: vLess-DILI-Concern
[3]
  Partition Hybrid HRM Score: +VE
  Ro2 Hybrid HRM Score: -VE

## CC[C@]1(O)C[C@@H]2CN(CCc3c([nH]c4ccccc34)[C@@](C(=O)OC)(c3cc4c(cc3OC)N(C)[C@H]3[C@@](O)(C(=O)OC)[C@H](OC(C)=O)[C@]5(CC)C=CCN6CC[C@]43[C@@H]65)C2)C1 [vinblastine]
[5]
  Cellular toxicity (3T3 cells): -VE
  GSH adduct HML: -VE
  Hepatocyte cellular toxicity: +VE
  MitoTox 3T3: +VE
  TDI CYP3A4: +VE
  hBSEP inhibition: +VE
[4]
  in vitro data EC2<=1x Cmax: -VE
